# Activity calls are given as the source filed them.
# Test system: Rattus norvegicus
# Test: Analgesic activity in carrageenan-induced Sprague-Dawley rat allodynia model assessed as increase in paw withdrawal threshold at 30 to 100 mg/kg, po after 30 mins
# Assay type: functional, organism-based
# Conditions: not given
row,SMILES,Activity
1,O=C(Nc1sc2c(c1C(=O)N1CC(F)(F)C1)CCOC2)c1c(F)cccc1C(F)(F)F,Active

# Test system: Rattus norvegicus
# Test: Analgesic activity in carrageenan-induced Sprague-Dawley rat allodynia model assessed as increase in paw withdrawal threshold at 10 to 30 mg/kg, po after 90 mins
# Assay type: functional, organism-based
# Conditions: not given
row,SMILES,Activity
1,O=C(Nc1sc2c(c1C(=O)N1CC(F)(F)C1)CCOC2)c1c(F)cccc1C(F)(F)F,Active

# Test system: Rattus norvegicus
# Test: Analgesic activity in carrageenan-induced Sprague-Dawley rat allodynia model assessed as effect on paw withdrawal threshold at 10 mg/kg, po after 30 mins
# Assay type: functional, organism-based
# Parameters: dose 10 mg/kg
# Conditions: not given
row,SMILES,Activity
1,O=C(Nc1sc2c(c1C(=O)N1CC(F)(F)C1)CCOC2)c1c(F)cccc1C(F)(F)F,inactive

# Test system: not listed separately
# Test: Oral bioavailability in rat at 3 mg/kg
# Assay type: ADME, organism-based
# Conditions: in vivo
row,SMILES,bioavailability [%]
1,O=C(Nc1sc2c(c1C(=O)N1CC(F)(F)C1)CCOC2)c1c(F)cccc1C(F)(F)F,8

# Test system: not listed separately
# Test: Tmax in rat at 3 mg/kg, po
# Assay type: ADME, organism-based
# Parameters: dose 3 mg/kg, route oral
# Conditions: in vivo
row,SMILES,Tmax [min]
1,O=C(Nc1sc2c(c1C(=O)N1CC(F)(F)C1)CCOC2)c1c(F)cccc1C(F)(F)F,60

# Test system: not listed separately
# Test: Clearance in rat at 1 mg/kg, iv
# Assay type: ADME, organism-based
# Parameters: dose 1 mg/kg, route intravenous
# Conditions: in vivo
row,SMILES,clearance [mL/min/kg]
1,O=C(Nc1sc2c(c1C(=O)N1CC(F)(F)C1)CCOC2)c1c(F)cccc1C(F)(F)F,102

# Test system: not listed separately
# Test: AUC in rat at 1 mg/kg, iv
# Assay type: ADME, organism-based
# Parameters: dose 1 mg/kg, route intravenous
# Conditions: plasma
row,SMILES,AUC [ng·h/mL]
1,O=C(Nc1sc2c(c1C(=O)N1CC(F)(F)C1)CCOC2)c1c(F)cccc1C(F)(F)F,165

# Test system: not listed separately
# Test: Half life in human liver microsomes
# Assay type: ADME, Microsome
# Conditions: not given
row,SMILES,half-life [min]
1,O=C(Nc1sc2c(c1C(=O)N1CC(F)(F)C1)CCOC2)c1c(F)cccc1C(F)(F)F,25.4

# Biological target: T1, Cannabinoid receptor 1 (Homo sapiens, UniProt P21554)
# Test: Displacement of [3H]-CP55,940 from human CB1 receptor after 60 mins by microscintillation counting analysis
# Conditions: not given
# T1 sequence (P21554 whole entry): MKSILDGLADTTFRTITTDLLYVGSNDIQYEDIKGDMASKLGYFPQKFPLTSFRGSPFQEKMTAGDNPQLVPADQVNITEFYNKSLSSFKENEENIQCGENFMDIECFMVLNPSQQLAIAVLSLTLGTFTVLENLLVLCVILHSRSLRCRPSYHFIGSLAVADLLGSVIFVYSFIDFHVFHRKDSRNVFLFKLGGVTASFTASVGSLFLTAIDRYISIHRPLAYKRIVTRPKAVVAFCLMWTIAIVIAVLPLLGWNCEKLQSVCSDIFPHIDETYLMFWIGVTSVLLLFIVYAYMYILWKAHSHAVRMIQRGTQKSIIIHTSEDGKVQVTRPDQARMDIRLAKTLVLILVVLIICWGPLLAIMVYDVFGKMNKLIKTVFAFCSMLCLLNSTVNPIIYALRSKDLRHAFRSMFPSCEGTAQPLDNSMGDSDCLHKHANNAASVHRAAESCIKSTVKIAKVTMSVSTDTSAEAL
row,SMILES,Ki [nM]
1,O=C(Nc1sc2c(c1C(=O)N1CCCCC1)CCOC2)c1ccccc1C(F)(F)F,11700
2,COCCNC(=O)c1c(NC(=O)c2ccccc2C(F)(F)F)sc2c1CCOC2,> 30000
3,O=C(Nc1sc2c(c1C(=O)N1CC(F)(F)C1)CCOC2)c1c(F)cccc1C(F)(F)F,11100
4,O=C(Nc1sc2c(c1C(=O)N1CC(F)(F)C1)CCOC2)c1ccccc1C(F)(F)F,7190
5,O=C(Nc1sc2c(c1C(=O)N1CC(F)(F)C1)CCOC2)c1ccccc1OC(F)(F)F,> 30000

# Biological target: T2, Cannabinoid receptor 2 (Homo sapiens, UniProt P34972)
# Test: Displacement of [3H]-CP55,940 from human CB2 receptor after 60 mins by microscintillation counting analysis
# Conditions: not given
# T2 sequence (P34972 whole entry): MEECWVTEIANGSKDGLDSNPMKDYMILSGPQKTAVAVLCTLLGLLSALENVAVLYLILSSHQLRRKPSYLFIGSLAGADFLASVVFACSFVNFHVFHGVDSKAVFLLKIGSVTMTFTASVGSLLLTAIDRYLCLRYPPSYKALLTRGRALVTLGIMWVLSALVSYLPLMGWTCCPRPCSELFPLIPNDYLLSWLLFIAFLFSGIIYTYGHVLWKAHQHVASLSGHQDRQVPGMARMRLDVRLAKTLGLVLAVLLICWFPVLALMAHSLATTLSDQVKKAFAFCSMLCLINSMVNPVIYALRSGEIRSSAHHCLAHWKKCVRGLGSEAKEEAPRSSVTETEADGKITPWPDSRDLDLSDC
row,SMILES,Ki [nM]
1,O=C(Nc1sc2c(c1C(=O)N1CCCCC1)CCOC2)c1ccccc1C(F)(F)F,241
2,COCCNC(=O)c1c(NC(=O)c2ccccc2C(F)(F)F)sc2c1CCOC2,999
3,O=C(Nc1sc2c(c1C(=O)N1CC(F)(F)C1)CCOC2)c1c(F)cccc1C(F)(F)F,444
4,O=C(Nc1sc2c(c1C(=O)N1CC(F)(F)C1)CCOC2)c1ccccc1C(F)(F)F,81.5
5,O=C(Nc1sc2c(c1C(=O)N1CC(F)(F)C1)CCOC2)c1ccccc1OC(F)(F)F,240

# Species on record: Homo sapiens
# Test: Selectivity ratio of EC50 for human CB1 receptor to EC50 for human CB2 receptor
# Conditions: not given
row,SMILES,Ratio EC50
1,O=C(Nc1sc2c(c1C(=O)N1CCCCC1)CCOC2)c1ccccc1C(F)(F)F,204
2,COCCNC(=O)c1c(NC(=O)c2ccccc2C(F)(F)F)sc2c1CCOC2,525
3,O=C(Nc1sc2c(c1C(=O)N1CC(F)(F)C1)CCOC2)c1c(F)cccc1C(F)(F)F,122
4,O=C(Nc1sc2c(c1C(=O)N1CC(F)(F)C1)CCOC2)c1ccccc1C(F)(F)F,118
5,O=C(Nc1sc2c(c1C(=O)N1CC(F)(F)C1)CCOC2)c1ccccc1OC(F)(F)F,420

# Biological target: T1, Cannabinoid receptor 1
# Test: Agonist activity at human CB1 receptor after 4 hrs by luciferase reporter gene assay
# Assay type: functional
# Conditions: not given
row,SMILES,EC50 [nM]
1,O=C(Nc1sc2c(c1C(=O)N1CCCCC1)CCOC2)c1ccccc1C(F)(F)F,607
2,COCCNC(=O)c1c(NC(=O)c2ccccc2C(F)(F)F)sc2c1CCOC2,8710
3,O=C(Nc1sc2c(c1C(=O)N1CC(F)(F)C1)CCOC2)c1c(F)cccc1C(F)(F)F,798
4,O=C(Nc1sc2c(c1C(=O)N1CC(F)(F)C1)CCOC2)c1ccccc1C(F)(F)F,296
5,O=C(Nc1sc2c(c1C(=O)N1CC(F)(F)C1)CCOC2)c1ccccc1OC(F)(F)F,1970

# Biological target: T1, Cannabinoid receptor 1
# Test: Agonist activity at human CB1 receptor after 4 hrs by luciferase reporter gene assay relative to control
# Assay type: functional
# Conditions: not given
row,SMILES,Efficacy [%]
1,O=C(Nc1sc2c(c1C(=O)N1CCCCC1)CCOC2)c1ccccc1C(F)(F)F,93
2,COCCNC(=O)c1c(NC(=O)c2ccccc2C(F)(F)F)sc2c1CCOC2,45
3,O=C(Nc1sc2c(c1C(=O)N1CC(F)(F)C1)CCOC2)c1c(F)cccc1C(F)(F)F,83
4,O=C(Nc1sc2c(c1C(=O)N1CC(F)(F)C1)CCOC2)c1ccccc1C(F)(F)F,84
5,O=C(Nc1sc2c(c1C(=O)N1CC(F)(F)C1)CCOC2)c1ccccc1OC(F)(F)F,104

# Biological target: T2, Cannabinoid receptor 2
# Test: Agonist activity at human CB2 receptor after 4 hrs by luciferase reporter gene assay relative to control
# Assay type: functional
# Conditions: not given
row,SMILES,Efficacy [%]
1,O=C(Nc1sc2c(c1C(=O)N1CCCCC1)CCOC2)c1ccccc1C(F)(F)F,99
2,COCCNC(=O)c1c(NC(=O)c2ccccc2C(F)(F)F)sc2c1CCOC2,93
3,O=C(Nc1sc2c(c1C(=O)N1CC(F)(F)C1)CCOC2)c1c(F)cccc1C(F)(F)F,96
4,O=C(Nc1sc2c(c1C(=O)N1CC(F)(F)C1)CCOC2)c1ccccc1C(F)(F)F,106
5,O=C(Nc1sc2c(c1C(=O)N1CC(F)(F)C1)CCOC2)c1ccccc1OC(F)(F)F,104

# Test system: not listed separately
# Test: Volume of distribution at steady state in rat at 1 mg/kg, iv
# Assay type: ADME, organism-based
# Parameters: dose 1 mg/kg, route intravenous
# Conditions: in vivo, read-out: Vdss
row,SMILES,Vd [L/kg]
1,O=C(Nc1sc2c(c1C(=O)N1CC(F)(F)C1)CCOC2)c1c(F)cccc1C(F)(F)F,3.61

# Test system: not listed separately
# Test: Half life in rat at 3 mg/kg, po
# Assay type: ADME, organism-based
# Parameters: dose 3 mg/kg, route oral
# Conditions: in vivo
row,SMILES,half-life [min]
1,O=C(Nc1sc2c(c1C(=O)N1CC(F)(F)C1)CCOC2)c1c(F)cccc1C(F)(F)F,534

# Test system: not listed separately
# Test: Half life in rat at 1 mg/kg, iv
# Assay type: ADME, organism-based
# Parameters: dose 1 mg/kg, route intravenous
# Conditions: in vivo
row,SMILES,half-life [min]
1,O=C(Nc1sc2c(c1C(=O)N1CC(F)(F)C1)CCOC2)c1c(F)cccc1C(F)(F)F,30

# Biological target: T2, Cannabinoid receptor 2
# Test: Agonist activity at human CB2 receptor after 4 hrs by luciferase reporter gene assay
# Assay type: functional
# Conditions: not given
row,SMILES,EC50 [nM]
1,O=C(Nc1sc2c(c1C(=O)N1CCCCC1)CCOC2)c1ccccc1C(F)(F)F,3
2,COCCNC(=O)c1c(NC(=O)c2ccccc2C(F)(F)F)sc2c1CCOC2,17
3,O=C(Nc1sc2c(c1C(=O)N1CC(F)(F)C1)CCOC2)c1c(F)cccc1C(F)(F)F,6.5
4,O=C(Nc1sc2c(c1C(=O)N1CC(F)(F)C1)CCOC2)c1ccccc1C(F)(F)F,2.5
5,O=C(Nc1sc2c(c1C(=O)N1CC(F)(F)C1)CCOC2)c1ccccc1OC(F)(F)F,4.7

# Test system: Mus musculus
# Test: Analgesic activity in NMRI mouse assessed as inhibition of acetic acid-induced writhing at 30 mg/kg, po measured for 30 mins relative to vehicle-treated control
# Assay type: functional
# Conditions: not given
row,SMILES,inhibition
1,COCCNC(=O)c1c(NC(=O)c2ccccc2C(F)(F)F)sc2c1CCOC2,inactive
2,O=C(Nc1sc2c(c1C(=O)N1CC(F)(F)C1)CCOC2)c1ccccc1OC(F)(F)F,inactive

# Same assay, conditions: 0.5 h
row,SMILES,inhibition in vivo at 30 mg/kg [%]
1,O=C(Nc1sc2c(c1C(=O)N1CCCCC1)CCOC2)c1ccccc1C(F)(F)F,32
2,O=C(Nc1sc2c(c1C(=O)N1CC(F)(F)C1)CCOC2)c1c(F)cccc1C(F)(F)F,38
3,O=C(Nc1sc2c(c1C(=O)N1CC(F)(F)C1)CCOC2)c1ccccc1C(F)(F)F,15

# Biological target: Cannabinoid receptor 1 (Rattus norvegicus, UniProt P20272)
# Test: Displacement of [3H]-CP55,940 from rat CB1 receptor after 60 mins by microscintillation counting analysis
# Conditions: not given
# Sequence of Cannabinoid receptor 1 (Rattus norvegicus, UniProt P20272) (P20272 whole entry): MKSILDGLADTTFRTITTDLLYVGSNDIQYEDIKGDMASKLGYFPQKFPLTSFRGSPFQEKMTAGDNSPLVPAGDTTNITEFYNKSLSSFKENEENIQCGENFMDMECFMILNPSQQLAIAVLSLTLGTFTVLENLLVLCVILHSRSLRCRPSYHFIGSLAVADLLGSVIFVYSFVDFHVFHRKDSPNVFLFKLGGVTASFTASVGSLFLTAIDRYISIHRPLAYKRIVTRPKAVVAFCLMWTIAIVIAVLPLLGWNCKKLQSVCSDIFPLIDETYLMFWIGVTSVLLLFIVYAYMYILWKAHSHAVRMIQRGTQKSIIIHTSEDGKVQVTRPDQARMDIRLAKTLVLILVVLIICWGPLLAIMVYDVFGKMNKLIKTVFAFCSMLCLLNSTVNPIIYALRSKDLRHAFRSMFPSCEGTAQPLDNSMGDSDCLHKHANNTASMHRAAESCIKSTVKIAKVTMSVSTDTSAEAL
row,SMILES,Ki [nM]
1,O=C(Nc1sc2c(c1C(=O)N1CCCCC1)CCOC2)c1ccccc1C(F)(F)F,15100
2,COCCNC(=O)c1c(NC(=O)c2ccccc2C(F)(F)F)sc2c1CCOC2,> 30000
3,O=C(Nc1sc2c(c1C(=O)N1CC(F)(F)C1)CCOC2)c1c(F)cccc1C(F)(F)F,13500
4,O=C(Nc1sc2c(c1C(=O)N1CC(F)(F)C1)CCOC2)c1ccccc1C(F)(F)F,> 30000
5,O=C(Nc1sc2c(c1C(=O)N1CC(F)(F)C1)CCOC2)c1ccccc1OC(F)(F)F,> 30000

# Test system: not listed separately
# Test: Half life in mouse liver microsomes
# Assay type: ADME, Microsome
# Conditions: not given
row,SMILES,half-life [min]
1,O=C(Nc1sc2c(c1C(=O)N1CCCCC1)CCOC2)c1ccccc1C(F)(F)F,15.5
2,COCCNC(=O)c1c(NC(=O)c2ccccc2C(F)(F)F)sc2c1CCOC2,19.8
3,O=C(Nc1sc2c(c1C(=O)N1CC(F)(F)C1)CCOC2)c1c(F)cccc1C(F)(F)F,51.3
4,O=C(Nc1sc2c(c1C(=O)N1CC(F)(F)C1)CCOC2)c1ccccc1C(F)(F)F,37.4
5,O=C(Nc1sc2c(c1C(=O)N1CC(F)(F)C1)CCOC2)c1ccccc1OC(F)(F)F,25.5

# Biological target: T3, Cannabinoid receptor 2 (Rattus norvegicus, UniProt Q9QZN9)
# T3 sequence (Q9QZN9 whole entry): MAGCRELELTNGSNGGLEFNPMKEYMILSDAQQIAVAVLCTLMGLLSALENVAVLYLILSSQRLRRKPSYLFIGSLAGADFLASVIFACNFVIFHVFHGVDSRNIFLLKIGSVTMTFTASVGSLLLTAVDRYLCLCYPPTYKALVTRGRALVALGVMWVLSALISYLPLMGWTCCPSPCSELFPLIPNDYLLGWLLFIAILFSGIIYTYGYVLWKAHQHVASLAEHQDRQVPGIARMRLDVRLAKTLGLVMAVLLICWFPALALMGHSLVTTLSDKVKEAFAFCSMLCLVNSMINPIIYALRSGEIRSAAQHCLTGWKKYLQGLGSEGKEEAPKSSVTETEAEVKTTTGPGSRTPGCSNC
# Test: Displacement of [3H]-CP55,940 from rat CB2 receptor after 60 mins by microscintillation counting analysis
# Conditions: not given
row,SMILES,Ki [nM]
1,O=C(Nc1sc2c(c1C(=O)N1CCCCC1)CCOC2)c1ccccc1C(F)(F)F,1610
2,COCCNC(=O)c1c(NC(=O)c2ccccc2C(F)(F)F)sc2c1CCOC2,2540
3,O=C(Nc1sc2c(c1C(=O)N1CC(F)(F)C1)CCOC2)c1c(F)cccc1C(F)(F)F,630
4,O=C(Nc1sc2c(c1C(=O)N1CC(F)(F)C1)CCOC2)c1ccccc1C(F)(F)F,594
5,O=C(Nc1sc2c(c1C(=O)N1CC(F)(F)C1)CCOC2)c1ccccc1OC(F)(F)F,4620

# Test system: not listed separately
# Test: Half life in rat liver microsomes
# Assay type: ADME, Microsome
# Conditions: not given
row,SMILES,half-life [min]
1,O=C(Nc1sc2c(c1C(=O)N1CCCCC1)CCOC2)c1ccccc1C(F)(F)F,5.28
2,COCCNC(=O)c1c(NC(=O)c2ccccc2C(F)(F)F)sc2c1CCOC2,17.8
3,O=C(Nc1sc2c(c1C(=O)N1CC(F)(F)C1)CCOC2)c1c(F)cccc1C(F)(F)F,14.2
4,O=C(Nc1sc2c(c1C(=O)N1CC(F)(F)C1)CCOC2)c1ccccc1C(F)(F)F,8
5,O=C(Nc1sc2c(c1C(=O)N1CC(F)(F)C1)CCOC2)c1ccccc1OC(F)(F)F,6.4

# From ChEMBL document CHEMBL2203203, “Structure-activity relationships of 2-arylamido-5,7-dihydro-4H-thieno[2,3-c]pyran-3-carboxamide derivatives as cannabinoid receptor agonists and their analgesic action” (Bioorg Med Chem Lett, 2012)
